Read-outs that look alike come from different tables or passages of the source.
Assays:
[1] = target: Y641N EZH2 (Homo sapiens, UniProt Q15910, Y641N); test: Y641N EZH2 assay: as EZH2 assay, with reconstituted H3K27Me2 oligonucleosomes as substrate; type: biochemical
[2] = target: EZH2 (rPRC2) (Homo sapiens, UniProt Q15910); test: EZH2 assay: rPRC2, biotinylated oligonucleosomes, 3H SAM methyl transfer (FlashPlate scintillation); type: biochemical; details: biotinylated oligonucleosome substrate
Chain of EZH2 (rPRC2) (Q15910 whole entry): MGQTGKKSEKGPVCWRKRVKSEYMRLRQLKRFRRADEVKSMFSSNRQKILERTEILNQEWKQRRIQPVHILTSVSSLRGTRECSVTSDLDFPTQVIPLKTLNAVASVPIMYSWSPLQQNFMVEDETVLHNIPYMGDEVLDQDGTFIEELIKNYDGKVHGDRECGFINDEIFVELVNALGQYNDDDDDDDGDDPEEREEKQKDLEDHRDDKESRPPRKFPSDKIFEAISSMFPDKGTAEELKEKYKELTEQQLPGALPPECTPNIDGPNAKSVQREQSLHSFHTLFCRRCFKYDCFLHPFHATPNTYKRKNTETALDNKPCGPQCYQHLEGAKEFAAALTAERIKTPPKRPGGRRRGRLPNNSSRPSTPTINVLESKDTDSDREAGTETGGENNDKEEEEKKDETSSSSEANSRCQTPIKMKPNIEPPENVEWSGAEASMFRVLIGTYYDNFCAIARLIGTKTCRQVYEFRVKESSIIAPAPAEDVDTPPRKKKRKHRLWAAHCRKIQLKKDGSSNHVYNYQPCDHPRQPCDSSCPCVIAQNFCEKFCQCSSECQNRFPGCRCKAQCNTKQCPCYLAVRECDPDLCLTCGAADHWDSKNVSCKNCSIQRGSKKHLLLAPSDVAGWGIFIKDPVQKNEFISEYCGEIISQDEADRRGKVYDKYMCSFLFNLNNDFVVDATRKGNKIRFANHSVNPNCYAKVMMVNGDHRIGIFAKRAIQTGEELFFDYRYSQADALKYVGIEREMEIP
Chain of EZH2 (rPRC2) (O75530 whole entry partner): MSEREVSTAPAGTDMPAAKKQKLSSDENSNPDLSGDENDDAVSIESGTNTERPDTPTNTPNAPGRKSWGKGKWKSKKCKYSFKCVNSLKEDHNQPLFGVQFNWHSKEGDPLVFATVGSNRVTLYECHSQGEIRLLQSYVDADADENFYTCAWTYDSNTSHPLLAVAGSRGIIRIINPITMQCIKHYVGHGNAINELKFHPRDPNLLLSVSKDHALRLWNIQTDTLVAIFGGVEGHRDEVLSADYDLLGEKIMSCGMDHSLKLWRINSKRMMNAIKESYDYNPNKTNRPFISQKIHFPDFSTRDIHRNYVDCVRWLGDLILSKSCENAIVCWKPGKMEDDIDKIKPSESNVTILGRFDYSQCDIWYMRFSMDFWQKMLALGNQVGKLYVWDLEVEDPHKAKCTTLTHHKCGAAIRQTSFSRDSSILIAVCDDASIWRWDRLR
Chain of EZH2 (rPRC2) (Q15022 whole entry partner): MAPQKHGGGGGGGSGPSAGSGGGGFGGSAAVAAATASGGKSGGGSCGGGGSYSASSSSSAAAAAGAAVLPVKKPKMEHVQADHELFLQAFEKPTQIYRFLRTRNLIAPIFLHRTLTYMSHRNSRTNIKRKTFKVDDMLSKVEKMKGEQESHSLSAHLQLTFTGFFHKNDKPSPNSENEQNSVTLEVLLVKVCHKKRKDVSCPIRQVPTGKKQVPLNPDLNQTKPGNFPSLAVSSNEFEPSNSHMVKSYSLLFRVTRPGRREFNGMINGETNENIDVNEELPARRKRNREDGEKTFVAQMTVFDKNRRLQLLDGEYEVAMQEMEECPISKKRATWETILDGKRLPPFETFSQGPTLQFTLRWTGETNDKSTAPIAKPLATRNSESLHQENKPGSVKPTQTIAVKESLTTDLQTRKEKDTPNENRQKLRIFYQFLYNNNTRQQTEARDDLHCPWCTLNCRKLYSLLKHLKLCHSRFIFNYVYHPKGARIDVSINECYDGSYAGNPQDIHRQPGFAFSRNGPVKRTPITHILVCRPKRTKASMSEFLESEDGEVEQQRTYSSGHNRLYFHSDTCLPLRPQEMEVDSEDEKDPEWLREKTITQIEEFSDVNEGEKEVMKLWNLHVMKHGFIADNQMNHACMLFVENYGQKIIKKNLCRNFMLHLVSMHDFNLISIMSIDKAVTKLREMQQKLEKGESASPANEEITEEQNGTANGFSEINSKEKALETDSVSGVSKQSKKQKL

[3] = system: H3K27me3 mark in HeLa cells; test: H3K27me3 Alpha Hela Assay (AlphaLISA); type: cell-based; details: 72 hrs; for EC50: Homo sapiens, read-out: H3K27me3_Alpha_HeLa_ (EC50)
Procedure: H3K27me3 Alpha Hela Assay (AlphaLISA).
Ten different doses of each test compound (in a series of 3-fold dilutions) were plated in duplicate 384-well tissue culture treated plates (Catalog #781080; Greiner Bio One; Monroe, N.C.). Hela cells grown in culture were trypsinized and counted using a Countess® cell counter (Catalog #C10281; Life Technologies, Grand Island, N.Y.). Cell were diluted to 67,000 cells per mL in 10% DMEM (Catalog #10569-010 Life Technologies. Grand Island, N.Y.) and 15 μL (1,000 cells) were plated into each well using the Biotek MicroFlo™ Select Dispenser (BioTek Instruments. Inc. Vermont, USA),) of the 384-well plate. Plates were incubated at 37° C./5% CO2 for 72 hrs. One of the duplicate plates was processed for HeLa assay and the other for viability.
To the plate processed for AlphaLISA was added 5 μL per well Cell-Histone Lysis buffer (1×) (Catalog #AL009F1 Perkin Elmer; Waltham, Mass.) and the plate was incubated at RT for 30 minutes on a plate shaker with low speed (Model#4625-Q Thermo Scientific; Waltham, Mass.). Then, 10 µL per well Histone Extraction buffer (catalog #AL009F2: Perkin Elmer; Waltham, Mass.) was added and the plate further incubated at RT for 20 min on plate shaker with low speed. To each well was then added 10 μL per well of a 5× mix of anti-K27me3 acceptor beads plus Biotinylated anti-Histone H3 (C-ter) Antibody (diluted to 3 nM final) (Catalog #AL118 Perkin Elmer; Waltham, Mass.). Dilution of the acceptor beads and then anti-Histone H3 was with 1× Histone Detection buffer (Catalog #AL009F3 Perkin Elmer; Waltham, Mass.) which was produced diluted from the 10× stock provided. The plate was sealed with an aluminum plate sealer and incubated at 23° C. for 60 min. We then added 10 μL 5× solution of Streptavidin Donor beads (Catalog #6760002 Perkin Elmer; Waltham, Mass.) (20 μg/mL final in 1× Histone Detection Buffer), sealed the plate with Aluminum plate sealer and incubated at 23° C. for 30 min. The plates were then read using an EnVision-Alpha Reader (model #2104 Perkin Elmer: Waltham, Mass.).
Data from both assays was analyzed using Assay Assistant (Constellation Pharmaceuticals In-house product) and Activity Base (IDBS Ltd. Surrey, UK) template. Data files were imported to Assay Assistant and assay conditions were specified. A unique Analysis ID was created and the data files exported to Activity Base. An analysis template was created on Activity Base to measure dose-dependent inhibition of H3K27me3 mark and cell viability respectively. Readout of DMSO wells were used to normalize the data. Resulting curves were fitted using Activity base software Model 205 (IDBS Ltd, Surrey, UK). The data was checked for quality, validated and integrated in excel format using SARview (IDBS Ltd, Surrey, UK).

[4] = Y641N EZH2 IC50, Y641N mutant EZH2, H3K27Me2 oligonucleosome substrate
[5] = EZH2 IC50, wild-type EZH2 (rPRC2)
[6] = Y641N mutant EZH2, H3K27Me2 oligonucleosome substrate, read-out: Y641N EZH2 IC50
[7] = wild-type EZH2 (rPRC2), read-out: EZH2 IC50

Chain of Y641N EZH2 (Q15910 whole entry Y641N): as the sequence (Q15910 whole entry) above, with Y641N counted along it
Chain of Y641N EZH2 (O75530 whole entry partner): as the sequence (O75530 whole entry partner) above
Chain of Y641N EZH2 (Q15022 whole entry partner): as the sequence (Q15022 whole entry partner) above

Structure (SMILES) | IC50 [1, 4] | IC50 [2, 5] | EC50 [3] | IC50 [1, 6] | IC50 [2, 7] | H3K27me3_Alpha_HeLa_ (EC50) [3] | IC50 ([1]; read-out: Y641N EZH2 IC50, Y641N mutant EZH2, H3K27Me2 oligonucleosome substrate) | IC50 ([2]; read-out: EZH2 IC50, wild-type EZH2 (rPRC2))
CCOC(=O)CN1CCC(C(C)n2c(C)c(C(=O)NCc3c(OC)cc(C)[nH]c3=O)c3ccccc32)CC1 (single isomer, unassigned) [Compound 363, (R or S)-ethyl 2-(4-(1-(3-(((4-methoxy-6-methyl-2-oxo-1,2-dihydropyridin-3-yl)methyl)carbamoyl)-2-methyl-1 H-indol-1-yl)ethyl)piperidin-1-yl)acetate] | < 100 nM | < 100 nM | < 400 nM |  |  |  |  | 
COc1cc(C)[nH]c(=O)c1CNC(=O)c1c(C)n(C(C)C2CCN(CCO)CC2)c2ccccc12 (single isomer, unassigned) [Compound 347, (R or S)-1-(1-(1-(2-hydroxyethyl)piperidin-4-yl)ethyl)-N-((4-methoxy-6-methyl-2-oxo-1,2-dihydropyridin-3-yl)methyl)-2-methyl-1H-indole-3-carboxamide] | < 100 nM | < 100 nM | 400 to 2000 nM |  |  |  |  | 
COc1cc(C)[nH]c(=O)c1CNC(=O)c1c(C)n(C(C)C2CN(S(C)(=O)=O)C2)c2ccccc12 (racemic) [Compound 354, (±)-N-((4-methoxy-6-methyl-2-oxo-1,2-dihydropyridin-3-yl)methyl)-2-methyl-1-(1-(1-(methylsulfonyl)azetidin-3-yl)ethyl)-1H-indole-3-carboxamide] | < 100 nM | < 100 nM | 400 to 2000 nM |  |  |  |  | 
COc1cc(C)[nH]c(=O)c1CNC(=O)c1c(C)n(-c2cccc3c2CCCN3S(C)(=O)=O)c2ccccc12 [Compound 371, N-((4-methoxy-6-methyl-2-oxo-1,2-dihydropyridin-3-yl)methyl)-2-methyl-1-(1-(methylsulfonyl)-1,2,3,4-tetrahydroquinolin-5-yl)-1H-indole-3-carboxamide] |  |  |  | < 100 nM | < 100 nM | *(3.33 μM) |  | 
COc1cc(C)[nH]c(=O)c1CNC(=O)c1c(C)n(C(C)C2CCN(S(C)(=O)=O)CC2)c2ncncc12 (stereo not shown) [Compound 370] |  |  |  | < 100 nM | < 100 nM | *(3.33 μM) |  | 
COc1cc(C)[nH]c(=O)c1CNC(=O)c1c(C)n(C(C)C2CCN(C)CC2)c2ccccc12 (single isomer, unassigned) [Compound 343, (R or S)-N-((4-methoxy-6-methyl-2-oxo-1,2-dihydropyridin-3-yl)methyl)-2-methyl-1-(1-(1-methylpiperidin-4-yl)ethyl)-1H-indole-3-carboxamide] | < 100 nM | < 100 nM | 400 to 2000 nM |  |  |  |  | 
COc1cc(C)[nH]c(=O)c1CNC(=O)c1c(C)n(C(C)C2CCN(CC(C)(C)O)CC2)c2ccccc12 (single isomer, unassigned) [Compound 352, (R or S)-1-(1-(1-(2-hydroxy-2-methylpropyl)piperidin-4-yl)ethyl)-N-((4-methoxy-6-methyl-2-oxo-1,2-dihydropyridin-3-yl)methyl)-2-methyl-1H-indole-3-carboxamide] | < 100 nM | < 100 nM | 400 to 2000 nM |  |  |  |  | 
COc1cc(C)[nH]c(=O)c1CNC(=O)c1c(C)n(-c2cccc3c2CCCN3)c2ccccc12 [Compound 339, N-((4-methoxy-6-methyl-2-oxo-1,2-dihydropyridin-3-yl)methyl)-2-methyl-1-(1,2,3,4-tetrahydroquinolin-5-yl)-1H-indole-3-carboxamide] |  |  | < 400 nM | < 100 nM | < 100 nM |  |  | 
Cc1cc(C)c(CNC(=O)c2c(C)n(C(C)C3CCN(C4CN(C)C4)CC3)c3ccccc23)c(=O)[nH]1 (single isomer, unassigned) [Compound 377, (R or S)-N-((4,6-dimethyl-2-oxo-1,2-dihydropyridin-3-yl)methyl)-2-methyl-1(1-(1-(1-methylazetidin-3-yl)piperidin-4-yl)ethyl)-1 H-indole-3-carboxamide] | < 100 nM | < 100 nM | 400 to 2000 nM |  |  |  |  | 
CCC(C)n1c(C)c(C(=O)NCc2c(OC)cc(C)[nH]c2=O)c2ccc(-c3ccc(N4CCNCC4)nc3)cc21 (racemic) [Compound 349, (±)-1-(sec-butyl)-N-((4-methoxy-6-methyl-2-oxo-1,2-dihydropyridin-3-yl)methyl)-2-methyl-6-(6-(piperazin-1-yl)pyridine-3-yl)-1H-indole-3-carboxamide] | < 100 nM | < 100 nM | 2000 to 10000 nM |  |  |  |  | 
COc1cc(C)[nH]c(=O)c1CNC(=O)c1c(C)n(C(C)C2CCC(S(=O)(=O)C(C)C)CC2)c2ccccc12 (single isomer, unassigned) [Compound 355, (R or S)-1-(1-(4-(isopropylsulfonyl)cyclohexyl)ethyl)-N-((4-methoxy-6-methyl-2-oxo-1,2-dihydropyridin-3-yl)methyl)-2-methyl-1 H-indole-3-carboxamide] | < 100 nM | < 100 nM | < 400 nM |  |  |  |  | 
COc1cc(C)[nH]c(=O)c1CNC(=O)c1c(C)n(C(C)c2ccnc(N3CCNCC3)c2)c2ccccc12 (racemic) [Compound 353, (±)-N-((4-methoxy-6-methyl-2-oxo-1,2-dihydropyridin-3-yl)methyl)-2-methyl-1-(1-(2-(piperazin-1-yl)pyridine-4-yl)ethyl)-1H-indole-3-carboxamide] | < 100 nM | < 100 nM |  |  |  | *(3.33 μM) |  | 
CCN1CCC(C(C)n2c(C)c(C(=O)NCc3c(OC)cc(C)[nH]c3=O)c3ccccc32)CC1 (single isomer, unassigned) [Compound 360, (R or S)-1-(1-(1-ethylpiperidin-4-yl)ethyl)-N-((4-methoxy-6-methyl-2-oxo-1,2-dihydropyridin-3-yl)methyl)-2-methyl-1 H-indole-3carboxamide] | < 100 nM | < 100 nM | 2000 to 10000 nM |  |  |  |  | 
COc1cc(C)[nH]c(=O)c1CNC(=O)c1c(C)n(C(C)C2CCN(C(=O)OCC(C)C)CC2)c2ccccc12 (single isomer, unassigned) [Compound 357, (R or S)-isobutyl 4-(1-(3-(((4-methoxy-6-methyl-2-oxo-1,2-dihydropyridin-3-yl)methyl)carbamoyl)-2-methyl-1 H-indol-1-yl)ethyl)piperidine-1-carboxylate] | < 100 nM | < 100 nM | < 400 nM |  |  |  |  | 
COCC(C)(C)n1c(C)c(C(=O)NCc2c(OC)cc(C)[nH]c2=O)c2ccccc21 [Compound 338, 1-(1-methoxy-2-methylpropan-2-yl)-N-((4-methoxy-6-methyl-2-oxo-1,2-dihydropyridin-3-yl)methyl)-2-methyl-1H-indole-3-carboxamide] | 100 to 1000 nM | < 100 nM | 400 to 2000 nM |  |  |  |  | 
Cc1cc(C)c(CNC(=O)c2c(C)n(C(C)C3CC3)c3ncccc23)c(=O)[nH]1 (single isomer, unassigned) [Compound 253, (R or S)-(±)-1-(1-cyclopropylethyl)-N-((4,6-dimethyl-2-oxo-1,2-dihydropyridin-3-yl)methyl)-2-methyl-1H-pyrrolo[2,3-b]pyridine-3-carboxamide] |  |  | < 400 nM |  |  |  | 100 to 1000 nM | < 100 nM
COc1cc(C)[nH]c(=O)c1CNC(=O)c1c(C)n(C(C)C2CCN(C(=O)OC(C)(C)C)CC2)c2ncncc12 (stereo not shown) [Compound 332, tert-butyl 4-(1-(5-(((4-methoxy-6-methyl-2-oxo-1,2-dihydropyridin-3-yl)methyl)carbamoyl)-6-methyl-7H-pyrrolo[2,3-d]pyrimidin-7-yl)ethyl)piperidine-1-carboxylate] |  |  | 400 to 2000 nM | < 100 nM | < 100 nM |  |  | 
CCS(=O)(=O)N1CCC(C(C)n2c(C)c(C(=O)NCc3c(C)cc(C)[nH]c3=O)c3ccccc32)CC1 (single isomer, unassigned) [Compound 368, (R or S)-N-(4,6-dimethyl-2-oxo-1,2-dihydropyridin-3-yl)methyl)-1-(1-(1-(ethylsulfonyl)piperidin-4-yl)ethyl)-2-methyl-1 H-indole-3-carboxamide] |  |  | < 400 nM |  |  |  |  | 
